According to US20070049564A1 (Wyeth, priority 2005, published 2007):
≈ marks a conversion by molar mass, not a printed value. Where two headings read alike, the source gives them in different places.

Key:
E. coli GC 2236 = test: MIC, broth microdilution; conditions: Escherichia coli
E. coli GC 2231 = test: MIC, broth microdilution; conditions: Escherichia coli
E. coli GC 2232 = test: MIC, broth microdilution; conditions: Escherichia coli
E. coli GC 2233 = test: MIC, broth microdilution; conditions: Escherichia coli
E. coli GC 2234 = test: MIC, broth microdilution; conditions: Escherichia coli
E. coli GC 2270 = test: MIC, broth microdilution; conditions: Escherichia coli
E. coli GC 2271 = test: MIC, broth microdilution; conditions: Escherichia coli
E. coli GC 3226 = test: MIC, broth microdilution; conditions: Escherichia coli
E. coli GC 2203 = test: MIC, broth microdilution; conditions: Escherichia coli
P. aeruginosa GC 2214 = test: MIC, broth microdilution; conditions: Pseudomonas aeruginosa
S. aureus GC 6466 = test: MIC, broth microdilution; conditions: Staphylococcus aureus
S. aureus GC 2216 = test: MIC, broth microdilution; conditions: Staphylococcus aureus
S. aureus GC 6335 = test: MIC, broth microdilution; conditions: Staphylococcus aureus
S. aureus GC 6469 = test: MIC, broth microdilution; conditions: Staphylococcus aureus
E. faecalis GC 2265 = test: MIC, broth microdilution; conditions: Enterococcus faecalis
E. faecium GC 4556 = test: MIC, broth microdilution; conditions: Enterococcus faecium
E. faecium GC 2243 = test: MIC, broth microdilution; conditions: Enterococcus faecium
S. pyogenes GC 4563 = test: MIC, broth microdilution; conditions: Streptococcus pyogenes
E. coli = test: Range of MIC for E. coli strains; conditions: Escherichia coli
Staph. = test: Range of MIC for Staph. strains, including MRSA; conditions: Staphylococcus aureus

## CCCCC(=O)OCOC(=O)N(CC(=O)Nc1cc(N(C)C)c2c(c1O)C(=O)C1=C(O)[C@]3(O)C(=O)C(C(N)=O)=C(O)[C@@H](N(C)C)[C@@H]3C[C@@H]1C2)C(C)(C)C [Example 61, ({[(2-{[(5aR,6aS,7S,10aS)-9-(aminocarbonyl)-4,7-bis(dimethylamino)-1,8,10a,11-tetrahydroxy-10,12-dioxo-5,5a,6,6a,7,10,10a,12-octahydrotetracen-2-yl]amino}-2-oxoethyl)(tert-butyl)amino]carbonyl}oxy)methyl pentanoate]
E. coli GC 2236; GC2236, pre-incubation in human serum
  MIC: 4 µg/mL (≈ 5.38 µM)
E. coli GC 2236; GC2236, pre-incubation in mouse serum
  MIC: 0.5 µg/mL (≈ 0.672 µM)
E. coli GC 2236; GC2236, pre-incubation in water
  MIC: 16 µg/mL (≈ 21.5 µM)
E. coli GC 2231; GC2231, pre-incubation in human serum
  MIC: 8 µg/mL (≈ 10.8 µM)
E. coli GC 2231; GC2231, pre-incubation in mouse serum
  MIC: 1 µg/mL (≈ 1.34 µM)
E. coli GC 2231; GC2231, pre-incubation in water
  MIC: 32 µg/mL (≈ 43 µM)
E. coli GC 2232; GC2232, pre-incubation in human serum
  MIC: 4 µg/mL (≈ 5.38 µM)
E. coli GC 2232; GC2232, pre-incubation in mouse serum
  MIC: 0.5 µg/mL (≈ 0.672 µM)
E. coli GC 2232; GC2232, pre-incubation in water
  MIC: 16 µg/mL (≈ 21.5 µM)
E. coli GC 2233; GC2233, pre-incubation in human serum
  MIC: 8 µg/mL (≈ 10.8 µM)
E. coli GC 2233; GC2233, pre-incubation in mouse serum
  MIC: 1 µg/mL (≈ 1.34 µM)
E. coli GC 2233; GC2233, pre-incubation in water
  MIC: 16 µg/mL (≈ 21.5 µM)
E. coli GC 2234; GC2234, pre-incubation in human serum
  MIC: 8 µg/mL (≈ 10.8 µM)
E. coli GC 2234; GC2234, pre-incubation in mouse serum
  MIC: 0.5 µg/mL (≈ 0.672 µM)
E. coli GC 2234; GC2234, pre-incubation in water
  MIC: 16 µg/mL (≈ 21.5 µM)
E. coli GC 2270; GC2270, pre-incubation in human serum
  MIC: 4 µg/mL (≈ 5.38 µM)
E. coli GC 2270; GC2270, pre-incubation in mouse serum
  MIC: 0.5 µg/mL (≈ 0.672 µM)
E. coli GC 2270; GC2270, pre-incubation in water
  MIC: 16 µg/mL (≈ 21.5 µM)
E. coli GC 2271; GC2271, pre-incubation in human serum
  MIC: 4 µg/mL (≈ 5.38 µM)
E. coli GC 2271; GC2271, pre-incubation in mouse serum
  MIC: 0.5 µg/mL (≈ 0.672 µM)
E. coli GC 2271; GC2271, pre-incubation in water
  MIC: 16 µg/mL (≈ 21.5 µM)
E. coli GC 3226; GC3226, pre-incubation in human serum
  MIC: 8 µg/mL (≈ 10.8 µM)
E. coli GC 3226; GC3226, pre-incubation in mouse serum
  MIC: 0.5 µg/mL (≈ 0.672 µM)
E. coli GC 3226; GC3226, pre-incubation in water
  MIC: 32 µg/mL (≈ 43 µM)
E. coli GC 2203; GC2203, pre-incubation in human serum
  MIC: 8 µg/mL (≈ 10.8 µM)
E. coli GC 2203; GC2203, pre-incubation in mouse serum
  MIC: 0.5 µg/mL (≈ 0.672 µM)
E. coli GC 2203; GC2203, pre-incubation in water
  MIC: 32 µg/mL (≈ 43 µM)
P. aeruginosa GC 2214; GC2214, pre-incubation in human serum
  MIC: > 64 µg/mL
P. aeruginosa GC 2214; GC2214, pre-incubation in mouse serum
  MIC: 8 µg/mL (≈ 10.8 µM)
P. aeruginosa GC 2214; GC2214, pre-incubation in water
  MIC: > 64 µg/mL
S. aureus GC 6466; GC6466, pre-incubation in human serum
  MIC: 0.5 µg/mL (≈ 0.672 µM)
S. aureus GC 6466; GC6466, pre-incubation in mouse serum
  MIC: 0.5 µg/mL (≈ 0.672 µM)
S. aureus GC 6466; GC6466, pre-incubation in water
  MIC: 0.5 µg/mL (≈ 0.672 µM)
S. aureus GC 2216; GC2216, pre-incubation in human serum
  MIC: 0.5 µg/mL (≈ 0.672 µM)
S. aureus GC 2216; GC2216, pre-incubation in mouse serum
  MIC: 0.5 µg/mL (≈ 0.672 µM)
S. aureus GC 2216; GC2216, pre-incubation in water
  MIC: 1 µg/mL (≈ 1.34 µM)
S. aureus GC 6335; GC6335, pre-incubation in human serum
  MIC: 1 µg/mL (≈ 1.34 µM)
S. aureus GC 6335; GC6335, pre-incubation in mouse serum
  MIC: 0.5 µg/mL (≈ 0.672 µM)
S. aureus GC 6335; GC6335, pre-incubation in water
  MIC: 1 µg/mL (≈ 1.34 µM)
S. aureus GC 6469; GC6469, pre-incubation in human serum
  MIC: 0.5 µg/mL (≈ 0.672 µM)
S. aureus GC 6469; GC6469, pre-incubation in mouse serum
  MIC: 0.5 µg/mL (≈ 0.672 µM)
S. aureus GC 6469; GC6469, pre-incubation in water
  MIC: 2 µg/mL (≈ 2.69 µM)
E. faecalis GC 2265; GC2265, pre-incubation in human serum
  MIC: 2 µg/mL (≈ 2.69 µM)
E. faecalis GC 2265; GC2265, pre-incubation in mouse serum
  MIC: 0.5 µg/mL (≈ 0.672 µM)
E. faecalis GC 2265; GC2265, pre-incubation in water
  MIC: 2 µg/mL (≈ 2.69 µM)
E. faecium GC 4556; GC4556, pre-incubation in human serum
  MIC: 2 µg/mL (≈ 2.69 µM)
E. faecium GC 4556; GC4556, pre-incubation in mouse serum
  MIC: 0.5 µg/mL (≈ 0.672 µM)
E. faecium GC 4556; GC4556, pre-incubation in water
  MIC: 2 µg/mL (≈ 2.69 µM)
E. faecium GC 2243; GC2243, pre-incubation in human serum
  MIC: 1 µg/mL (≈ 1.34 µM)
E. faecium GC 2243; GC2243, pre-incubation in mouse serum
  MIC: 0.25 µg/mL (≈ 0.336 µM)
E. faecium GC 2243; GC2243, pre-incubation in water
  MIC: 0.5 µg/mL (≈ 0.672 µM)
S. pyogenes GC 4563; GC4563, pre-incubation in human serum
  MIC: 0.25 µg/mL (≈ 0.336 µM)
S. pyogenes GC 4563; GC4563, pre-incubation in mouse serum
  MIC: 0.25 µg/mL (≈ 0.336 µM)
S. pyogenes GC 4563; GC4563, pre-incubation in water
  MIC: 0.5 µg/mL (≈ 0.672 µM)
E. coli; 20 h, read-out: Range of MIC, E. coli (Mouse Serum)
  MIC: 0.5 to 1 µg/mL (≈ 0.672 to 1.34 µM)
E. coli; read-out: Minimum inhibitory concentration (MIC), E. coli (Human Serum)
  MIC: 4 to 32 µg/mL (≈ 5.38 to 43 µM)
Staph.; MRSA, read-out: Range of MIC, Staph (Mouse Serum)
  MIC: 0.25 to 0.5 µg/mL (≈ 0.336 to 0.672 µM)
Staph.; MRSA, read-out: Range of MIC, Staph (Water)
  MIC: 0.5 to 2 µg/mL (≈ 0.672 to 2.69 µM)
Staph.; read-out: Minimum inhibitory concentration (MIC), Staph (Human Serum)
  MIC: 0.5 to 1 µg/mL (≈ 0.672 to 1.34 µM)
Staph.; read-out: Minimum inhibitory concentration (MIC), Staph (Water)
  MIC: 0.5 to 2 µg/mL (≈ 0.672 to 2.69 µM)
